Patent US20020037902A1 (priority 2000, published 2002)

How the values were obtained:
oligodendrocytes [1] = test: Test 3: protective effect of riluzole on oligodendrocyte death induced by kainate; assay type: cell-based, Wistar rats; settings: Kainate 1000 alone (no riluzole), 48 hours
Protocol: Oligodendrocytes were obtained from primary glial cultures of spinal cords according to the slightly modified method described by Saneto et al. (Neurochemistry, a Practical Approach, IRL Press, oxford-Washington, D.C., p 27-63 (1987)). Spinal cords from 1-day old Wistar rats were dissected under sterile conditions and separated from the meninges. Five to ten spinal cords were transferred into PBS (phosphate-buffered saline: NaCl 137 mM, KCl 2.68 mM, Na2HPO4 6.45 mM, KH2PO4 1.47 mM) to which 0.25% of trypsin was added. The enzymatic treatment was stopped by addition of Dubelco's modified Eagle's medium (DMEM) to which 10% of fetal bovine serum was added (FBS). Another dissolution step was carried out by means of a 1 ml pipette, and the cell suspension was filtered. The cells were collected by centrifugation and plated at a density of 1.5−2×10^6 cells/25 cm^2 of culture medium in Dubelco's modified Eagle's medium (DMEM) to which 10% of fetal bovine serum was added. After 3 days in vitro, the cultures were fed daily. […]
(§1) After 48 hours, measured from the start of treatment, the living oligodendrocytes were counted.
The number of Gal-C (+) oligo-dendrocytes were divided for 2 separate counts of the labeled cells in at least 12 fields of 0.63 mm^2 under a 400X microscope. The values were expressed as the number of cells per cm^2 or as the percentage of the control. […]

oligodendrocytes [2] = test: Kainate-induced death in cultures enriched with oligodendrocytes, counting of living Gal-C (+) cells; assay type: cell-based, Wistar rats; settings: 48 hours
Protocol: Oligodendrocytes were obtained from primary glial cultures of spinal cords according to the slightly modified method described by Saneto et al. (Neurochemistry, a Practical Approach, IRL Press, oxford-Washington, D.C., p 27-63 (1987)). Spinal cords from 1-day old Wistar rats were dissected under sterile conditions and separated from the meninges. Five to ten spinal cords were transferred into PBS (phosphate-buffered saline: NaCl 137 mM, KCl 2.68 mM, Na2HPO4 6.45 mM, KH2PO4 1.47 mM) to which 0.25% of trypsin was added. The enzymatic treatment was stopped by addition of Dubelco's modified Eagle's medium (DMEM) to which 10% of fetal bovine serum was added (FBS). Another dissolution step was carried out by means of a 1 ml pipette, and the cell suspension was filtered. The cells were collected by centrifugation and plated at a density of 1.5−2×10^6 cells/25 cm^2 of culture medium in Dubelco's modified Eagle's medium (DMEM) to which 10% of fetal bovine serum was added. After 3 days in vitro, the cultures were fed daily. When a visible monolayer was obtained, the cultures were stirred for 2 hours at 37° C. at 250 rpm, the culture medium was removed, and the flasks were again stirred for 22 hours. The cell-containing medium was incubated at 37° C. in petri dishes for 1 hour in order for the microglia to become attached to the plastic. The oligodendrocytes were collected by centrifugation, plated at a density of 1.6×10^6/cm^2 and maintained in DMEM containing 10% FBS for 1 or 2 days. The medium was then replaced with L15 medium to which sodium bicarbonate (22 mM), conalbumin (0.1 mg/ml), putrescine (0.1 mM), insulin (5 μg/ml), sodium selenite (31 nM), glucose (20 mM), progesterone (21 nM), penicillin (100 IU/ml), streptomycin (100 μg/ml), and horse serum (2%) were added. The oligodendrocytes rapidly differentiated within 24 to 48 hours into a mature and immature phenotype.
as §1
The number of Gal-C (+) oligo-dendrocytes were divided for 2 separate counts of the labeled cells in at least 12 fields of 0.63 mm^2 under a 400X microscope. The values were expressed as the number of cells per cm^2 or as the percentage of the control.
The statistical analyses were carried out using the Student's test (t-test).
The cultures of oligodendrocytes were exposed to concentrations of 0.1 to 1 mM kainate for 48 hours.

In the case of `C=C(C)[C@H]1CN[C@H](C(=O)O)[C@H]1CC(=O)O` [Kainate], the “Number of oligodendrocytes % relative to the control ± standard deviation” value (oligodendrocytes [1]) is reported as 22.9 ± 7.1 % relative to the control, the “Number of oligodendrocytes % relative to the control ± standard deviation” value (oligodendrocytes [2]; kainate 0.01 mM) is reported as 108.2 ± 25.2 % relative to the control and the “Number of oligodendrocytes % relative to the control ± standard deviation” value (oligodendrocytes [2]; kainate 0.1 mM) is reported as 76.3 ± 27.9 % relative to the control. The “Number of oligodendrocytes % relative to the control ± standard deviation” value (oligodendrocytes [2]; kainate 0.5 mM) was 25.3 ± 9.3 % relative to the control, the “Number of oligodendrocytes % relative to the control ± standard deviation” value (oligodendrocytes [2]; kainate 1 mM) was 22.9 ± 7.1 % relative to the control and the “Induction of death of the oligodendrocytes through apoptosis” value (oligodendrocytes [2]; kainate at doses of from about 0.1 mM to about 1 mM) was “strongly induced death of the oligodendrocytes through apoptosis”.
